Key:
HGF gene = experiment: RT-PCR of HGF gene expression in RINm5F cells; type: cell-based, rat; conditions: 10 mM nicotinamide; 24 h
Method: Rat insulinoma RINm5F cells were seeded at 1.5×10^5 cells/ml in a 25-cm^2 culture bottle. […] After a further 24-h incubation, total RNA was prepared using cesium trifluoroacetate as described in […]. et al. (1993) J. Biol. Chem. 268, 26052-26054 and Akiyama, T. et al. (2001) Proc. Natl. Acad. Sci. USA 98, 48-53. RT-PCR was performed using this RNA as a template and primers corresponding to nucleotides 1,556-1,575 and 2,208-2,227 of rat HGF mRNA (Okajima, A. et al. (1990) Eur. J. Biochem. 193, 375-381) as described in Sun, W. et al. (1999) Brain Res. 851, 46-53, to detect the expression of HGF gene. PCR was carried out by a two-step protocol as described in Sun, W. et al. (1999) Brain Res. 851, 46-53, with 33 cycles of the first step [denaturation (95° C., 40 s), primer annealing (60° C., 40 s), and primer elongation (72° C., 1 min)] followed by the 5 cycles of the second step [denaturation ([…], 40 s), primer annealing (60° C., 40 s), and primer elongation (72° C., 1 min)].

[1] = system: 5' upstream region of rat HGF gene; experiment: HGF promoter/luciferase reporter assay in RINm5F cells; type: cell-based; conditions: -1336 to +85 construct; 10 mM nicotinamide; 24 h
Method: The 5′ upstream region (−1336 to +85) of rat HGF gene was inserted into the multicloning site of pGL3-Basic (Promega) to prepare a luciferase reporter gene construct. Rat insulinoma RINm5F cells were seeded at 1×10^5 cells/well in a 24-well plate, incubated for 2 days, then, transfected with the test luciferase reporter construct using DMRIE-C™ (Life Technologies, Inc.) as described in Akiyama, T. et al. (2001) Proc. Natl. Acad. Sci. USA 98, 48-53. […] Then, the cells were harvested in 1 ml of ice-cold phosphate-buffered saline (PBS), washed twice with PBS, and cell extracts were prepared in extraction buffer (0.1 M potassium phosphate, pH 6.8, 1 mM DTT). The protein concentration was determined using a Coomassie reagent kit (Pierce) and bovine serum albumin as a standard. Luciferase activity was determined using a chemiluminescence substrate and a Pica Gene™ Luminescence Kit (Toyo Ink Mfg. Co, Ltd., Tokyo, Japan). β-Galactosidase activity was measured using an Aurora™ GAL-XE (ICN).
Various lengths of 5′ upstream regions HGF gene (Okajima, A., Miyazawa, K. and Kitamura, N. (1993) Eur. J. Biochem. 213, 113-119 (GenBank Ac. No. D14341)) were inserted into the multicloning site of pGL3-Basic (Promega) to prepare luciferase reporter gene constructs (FIG. 10). […] The protein concentration was determined using a Coomassie reagent kit (Pierce) and bovine serum albumin as a standard. […]

90% depancreatized rats = conditions: PARP inhibitor-treated rats; cited from earlier work

NC(=O)c1cccnc1 [nicotinamide]
HGF gene expression (RT-PCR), PARP inhibitor added to IL-6/dexamethasone (HGF gene): further enhanced HGF gene expression
transcriptional activity of HGF gene (luciferase), nicotinamide added to IL-6/dexamethasone [1]: further enhanced this transcriptional induction
development of diabetes after 90% pancreatectomy (90% depancreatized rats): preventing the development of diabetes

— US20060134063A1, “Agents for proliferating pancreatic beta-cells of the islets of langerhans, agents for suppressing apoptosis of said cells, and screening of candidate compounds for these agents” (priority 2000, published 2006)
